# Laboratory results reported in ChEMBL document CHEMBL2176887, “Chemokine receptor antagonists” (J Med Chem, 2012).
# Columns and labels:
# [1] = biological target: T1, Muscarinic acetylcholine receptor M2 (Homo sapiens, UniProt P08172)
# T1 sequence (P08172 whole entry): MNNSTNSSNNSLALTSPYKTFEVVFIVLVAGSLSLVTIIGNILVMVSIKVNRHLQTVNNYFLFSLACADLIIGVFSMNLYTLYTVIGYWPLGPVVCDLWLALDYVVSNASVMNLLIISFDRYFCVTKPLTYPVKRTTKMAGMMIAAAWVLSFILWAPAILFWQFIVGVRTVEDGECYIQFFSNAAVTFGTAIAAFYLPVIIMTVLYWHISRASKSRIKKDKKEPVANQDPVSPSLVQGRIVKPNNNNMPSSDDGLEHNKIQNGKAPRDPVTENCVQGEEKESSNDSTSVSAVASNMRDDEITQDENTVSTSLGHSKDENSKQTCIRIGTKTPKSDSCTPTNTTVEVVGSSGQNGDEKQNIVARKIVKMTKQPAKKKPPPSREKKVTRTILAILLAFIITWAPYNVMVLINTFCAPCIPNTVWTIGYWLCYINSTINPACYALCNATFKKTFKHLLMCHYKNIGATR
# Description: Binding affinity to muscarinic M2 receptor
# [2] = biological target: C-C chemokine receptor type 5 (Homo sapiens, UniProt P51681)
# Sequence of C-C chemokine receptor type 5 (P51681 whole entry): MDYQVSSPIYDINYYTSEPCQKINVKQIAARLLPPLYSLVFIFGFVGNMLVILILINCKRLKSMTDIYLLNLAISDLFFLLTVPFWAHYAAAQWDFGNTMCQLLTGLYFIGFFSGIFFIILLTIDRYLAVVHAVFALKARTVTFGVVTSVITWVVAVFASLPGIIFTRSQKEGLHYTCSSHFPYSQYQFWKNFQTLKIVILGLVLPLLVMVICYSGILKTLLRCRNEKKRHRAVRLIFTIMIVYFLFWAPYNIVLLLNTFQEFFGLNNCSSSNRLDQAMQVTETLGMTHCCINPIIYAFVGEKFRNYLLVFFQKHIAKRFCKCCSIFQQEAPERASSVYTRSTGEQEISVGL
# physchem = conditions: octanol/water
# Description: Lipophilicity, log P of the compound
# [3] = biological target: T2, C-C chemokine receptor type 1 (Homo sapiens, UniProt P32246)
# T2 sequence (P32246 whole entry): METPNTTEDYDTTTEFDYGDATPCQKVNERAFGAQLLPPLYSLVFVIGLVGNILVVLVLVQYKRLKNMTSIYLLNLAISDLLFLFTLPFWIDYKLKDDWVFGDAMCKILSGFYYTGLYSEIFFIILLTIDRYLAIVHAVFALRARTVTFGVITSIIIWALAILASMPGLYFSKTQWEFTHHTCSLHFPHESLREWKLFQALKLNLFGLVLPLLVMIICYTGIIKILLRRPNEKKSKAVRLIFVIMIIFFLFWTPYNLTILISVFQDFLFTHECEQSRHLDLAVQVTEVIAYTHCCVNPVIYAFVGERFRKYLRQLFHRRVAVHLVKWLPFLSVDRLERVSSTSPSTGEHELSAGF
# [4] = biological target: T2, C-C chemokine receptor type 1; assay: Antagonist activity at CCR1; assay type: functional
# [5] = biological target: T3, C-C chemokine receptor type 3 (Homo sapiens, UniProt P51677)
# T3 sequence (P51677 whole entry): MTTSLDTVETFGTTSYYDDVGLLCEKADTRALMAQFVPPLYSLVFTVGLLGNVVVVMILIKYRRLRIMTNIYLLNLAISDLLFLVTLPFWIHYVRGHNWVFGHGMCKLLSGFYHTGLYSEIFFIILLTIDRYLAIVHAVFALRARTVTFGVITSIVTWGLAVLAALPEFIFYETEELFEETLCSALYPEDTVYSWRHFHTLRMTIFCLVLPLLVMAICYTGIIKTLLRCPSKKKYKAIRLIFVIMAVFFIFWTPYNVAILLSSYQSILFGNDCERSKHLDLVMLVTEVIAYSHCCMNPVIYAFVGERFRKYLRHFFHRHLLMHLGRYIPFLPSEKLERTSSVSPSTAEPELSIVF
# [6] = Oral bioavailability in dog; assay type: ADME, organism-based, Canis lupus familiaris; conditions: in vivo
# [7] = Half life in dog; assay type: ADME, organism-based, Canis lupus familiaris; conditions: in vivo
# [8] = biological target: T3, C-C chemokine receptor type 3; assay: Antagonist activity at human CCR3 assessed as inhibition of CCL11-induced calcium influx by cell based assay; assay type: functional
# Histamine H1 receptor [9] = biological target: T4, Histamine H1 receptor (Homo sapiens, UniProt P35367); assay: Antagonist activity at histamine H1 receptor expressed in human PC3 cells inhibition of histamine-induced calcium influx by cell based assay; assay type: functional, PC-3
# T4 sequence (P35367 whole entry): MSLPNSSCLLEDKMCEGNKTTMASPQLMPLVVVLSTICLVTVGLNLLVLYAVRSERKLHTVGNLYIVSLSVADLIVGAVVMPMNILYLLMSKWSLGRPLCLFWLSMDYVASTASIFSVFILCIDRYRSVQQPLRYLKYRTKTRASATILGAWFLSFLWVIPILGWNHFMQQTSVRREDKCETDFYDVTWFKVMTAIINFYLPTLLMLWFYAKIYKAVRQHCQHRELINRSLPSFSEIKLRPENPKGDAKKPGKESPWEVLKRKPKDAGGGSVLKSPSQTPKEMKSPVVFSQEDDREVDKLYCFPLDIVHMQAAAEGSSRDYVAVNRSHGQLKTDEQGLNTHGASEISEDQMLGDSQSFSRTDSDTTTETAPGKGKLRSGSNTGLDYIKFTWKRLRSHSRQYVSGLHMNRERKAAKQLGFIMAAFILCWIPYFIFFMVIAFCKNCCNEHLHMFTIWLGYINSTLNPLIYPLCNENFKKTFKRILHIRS
# Thromboxane A2 receptor = biological target: T5, Thromboxane A2 receptor (Homo sapiens, UniProt P21731)
# T5 sequence (P21731 whole entry): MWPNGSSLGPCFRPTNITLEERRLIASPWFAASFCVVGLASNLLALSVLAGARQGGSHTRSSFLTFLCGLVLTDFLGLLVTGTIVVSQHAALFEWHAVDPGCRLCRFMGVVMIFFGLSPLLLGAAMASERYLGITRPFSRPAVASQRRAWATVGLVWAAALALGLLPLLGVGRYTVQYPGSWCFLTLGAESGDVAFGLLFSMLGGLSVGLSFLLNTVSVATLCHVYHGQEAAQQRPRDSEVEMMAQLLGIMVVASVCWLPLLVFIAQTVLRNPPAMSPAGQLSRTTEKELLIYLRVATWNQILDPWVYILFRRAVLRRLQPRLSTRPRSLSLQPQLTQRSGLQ
# Description: Binding affinity to TXA2 receptor receptor
# Histamine H1 receptor [10] = biological target: T4, Histamine H1 receptor; assay: Binding affinity to histamine H1 receptor
# [11] = biological target: T6, Type-1 angiotensin II receptor (Homo sapiens, UniProt P30556)
# T6 sequence (P30556 whole entry): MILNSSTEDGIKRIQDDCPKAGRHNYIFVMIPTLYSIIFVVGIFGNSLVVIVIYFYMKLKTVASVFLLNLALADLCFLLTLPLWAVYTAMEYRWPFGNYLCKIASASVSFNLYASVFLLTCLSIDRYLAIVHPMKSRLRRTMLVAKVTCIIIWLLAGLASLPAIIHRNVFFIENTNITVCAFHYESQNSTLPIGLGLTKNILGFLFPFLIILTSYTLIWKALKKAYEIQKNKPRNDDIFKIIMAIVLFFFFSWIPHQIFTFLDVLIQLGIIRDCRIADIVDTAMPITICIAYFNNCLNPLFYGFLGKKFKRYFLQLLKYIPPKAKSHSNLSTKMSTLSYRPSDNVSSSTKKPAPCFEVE
# Description: Binding affinity to AT1 receptor
# [12] = test system: Human immunodeficiency virus 1; assay: Antiviral activity against Human immunodeficiency virus 1 ADA; assay type: functional, organism-based
# [13] = Oral bioavailability in monkey; assay type: ADME, organism-based, Macaca mulatta; conditions: rhesus monkey, in vivo
# [14] = test system: Human immunodeficiency virus 1; assay: Antiviral activity against R5 tropic Human immunodeficiency virus 1; assay type: functional, organism-based
# [15] = octanol/water
# Description: Lipophilicity, log P of the compound
# [16] = Half life in human; assay type: ADME, organism-based; conditions: in vivo
# [17] = test system: Human immunodeficiency virus 1; assay: Antiviral activity against Human immunodeficiency virus 1 clinical isolate; assay type: functional, organism-based
# [18] = biological target: T7, C-X-C chemokine receptor type 2 (Homo sapiens, UniProt P25025)
# T7 sequence (P25025 whole entry): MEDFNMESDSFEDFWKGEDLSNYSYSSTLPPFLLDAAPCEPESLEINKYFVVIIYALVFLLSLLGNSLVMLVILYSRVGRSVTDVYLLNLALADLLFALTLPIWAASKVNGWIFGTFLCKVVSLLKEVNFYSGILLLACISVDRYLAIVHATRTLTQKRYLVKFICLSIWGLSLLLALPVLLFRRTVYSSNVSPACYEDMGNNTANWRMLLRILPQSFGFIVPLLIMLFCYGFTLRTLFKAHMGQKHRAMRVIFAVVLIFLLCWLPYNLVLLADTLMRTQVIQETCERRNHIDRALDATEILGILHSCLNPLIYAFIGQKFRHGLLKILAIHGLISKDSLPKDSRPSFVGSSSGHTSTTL
# Description: Binding affinity to CXCR2
# [19] = biological target: T8, C-X-C chemokine receptor type 1 (Homo sapiens, UniProt P25024)
# T8 sequence (P25024 whole entry): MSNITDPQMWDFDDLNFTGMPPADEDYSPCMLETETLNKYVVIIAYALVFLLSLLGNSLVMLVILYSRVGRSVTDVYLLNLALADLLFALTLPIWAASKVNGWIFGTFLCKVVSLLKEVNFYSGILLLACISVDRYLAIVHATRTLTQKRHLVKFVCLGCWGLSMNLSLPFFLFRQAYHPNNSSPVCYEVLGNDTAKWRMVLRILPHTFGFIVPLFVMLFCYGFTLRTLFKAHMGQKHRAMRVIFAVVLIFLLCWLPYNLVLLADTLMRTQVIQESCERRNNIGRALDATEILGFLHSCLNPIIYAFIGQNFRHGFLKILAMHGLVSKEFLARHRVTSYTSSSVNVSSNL
# Description: Binding affinity to CXCR1
# [20] = biological target: T7, C-X-C chemokine receptor type 2; assay: Antagonist activity at CXCR2 assessed as inhibition of neutrophil CD11b up-regulation; assay type: functional
# [21] = Oral bioavailability in rat; assay type: ADME, organism-based; conditions: in vivo
# [22] = Half life in beagle dog; assay type: ADME, organism-based, Canis lupus familiaris; conditions: in vivo
# [23] = Half life in rat; assay type: ADME, organism-based; conditions: in vivo
# [24] = Oral bioavailability in beagle dog; assay type: ADME, organism-based, Canis lupus familiaris; conditions: in vivo
# [25] = biological target: T9, C-C chemokine receptor type 4 (Homo sapiens, UniProt P51679); assay: Binding affinity to CCR4
# T9 sequence (P51679 whole entry): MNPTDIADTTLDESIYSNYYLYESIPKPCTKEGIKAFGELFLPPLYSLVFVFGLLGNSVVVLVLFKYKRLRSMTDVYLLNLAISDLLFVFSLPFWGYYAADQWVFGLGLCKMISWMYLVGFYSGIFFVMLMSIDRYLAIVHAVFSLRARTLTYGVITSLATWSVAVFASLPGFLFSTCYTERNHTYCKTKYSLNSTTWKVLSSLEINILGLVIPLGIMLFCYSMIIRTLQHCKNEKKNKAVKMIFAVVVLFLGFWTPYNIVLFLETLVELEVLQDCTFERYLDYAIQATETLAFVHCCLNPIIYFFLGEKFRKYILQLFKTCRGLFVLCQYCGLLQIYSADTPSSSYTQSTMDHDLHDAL
# [26] = biological target: C-C chemokine receptor type 2 (Homo sapiens, UniProt P41597)
# Sequence of C-C chemokine receptor type 2 (P41597 whole entry): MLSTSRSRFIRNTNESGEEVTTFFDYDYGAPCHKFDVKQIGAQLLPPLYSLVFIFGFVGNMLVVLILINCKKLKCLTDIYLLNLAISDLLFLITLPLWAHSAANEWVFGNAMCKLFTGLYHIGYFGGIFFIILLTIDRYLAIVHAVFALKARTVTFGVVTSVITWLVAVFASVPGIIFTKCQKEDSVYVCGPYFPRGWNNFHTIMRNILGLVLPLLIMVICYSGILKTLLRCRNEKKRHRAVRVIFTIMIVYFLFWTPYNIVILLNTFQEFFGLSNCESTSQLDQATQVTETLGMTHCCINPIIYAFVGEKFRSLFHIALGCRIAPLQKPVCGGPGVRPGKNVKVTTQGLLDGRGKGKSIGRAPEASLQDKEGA
# [27] = test system: Human immunodeficiency virus 1; assay: Antiviral activity against CCR5-tropic HIV1; assay type: functional
smiles,measurement,setting,value
CC(C)(O)CC[C@H](C[C@H](O)[C@H](Cc1cccc(F)c1)NC(=O)c1cnc2ccccc2n1)C(N)=O,Ki,[1],1320 nM
same,Ki,[2],66 nM
Cc1ccc(S(=O)(=O)NC(=O)N2CCC(N3CCC(Oc4ccc(Cl)c(Cl)c4)CC3)CC2)cc1,logP,physchem,3.8
NCC1CCCN(C(=O)c2ccc3c(c2)C(C(=O)NC2CCN(C/C4=C/CCCCCCC4)CC2)c2ccccc2O3)C1 (centres undefined),Ki,[3],1.8 nM
CO[C@@H]1COCC[C@@H]1NC1CC[C@@](C(=O)N2CCc3ncc(C(F)(F)F)cc3C2)(C(C)C)C1 (some centres undefined),IC50,[4],5 nM
NC(=O)c1ccc(CNC(=O)NC[C@@H]2CN(Cc3ccc(Cl)c(Cl)c3)CCO2)cc1,logP,physchem,2.2
same,IC50,[5],10 nM
same,bioavailability,[6],89%
same,half-life,[7],2.8 h
Cc1ccc(C(=O)N2CCC(=CC(=O)N[C@@H]3CCN(Cc4ccc5cc(F)ccc5c4)C3)CC2)nn1,Ki,[8],1.8 nM
same,Ki,Histamine H1 receptor [9],47 nM
O=C(O)Cc1ccc2c(c1)/C(=C/Cn1cnc3ccccc31)c1ccccc1CO2,Ki,Thromboxane A2 receptor,15 nM
O=C(O)Cc1ccc2c(c1)/C(=C/CN1CCCC(Cc3ccccc3)C1)c1ccccc1CO2 (centres undefined),Ki,Thromboxane A2 receptor,740 nM
same,Ki,Histamine H1 receptor [10],20 nM
Cc1noc(NS(=O)(=O)c2ccccc2-c2ccc(-c3ncco3)cc2)c1C,Ki,[11],> 10000 nM
Cc1nnc(C(=O)NC(C)(C)c2nc(C(=O)NCc3ccc(F)cc3)c(O)c(=O)n2C)o1,logP,physchem,2.4
same,Ki,[3],5 nM
CN(C)C/C=C1\c2ccccc2COc2ccc(CC(=O)O)cc21,Ki,Thromboxane A2 receptor,> 1000 nM
CCOc1ccc(-n2c([C@@H](C)N(Cc3cccnc3)C(=O)Cc3ccc(OC(F)(F)F)cc3)nc3ncccc3c2=O)cc1,logP,physchem,3.8
CCO/N=C(\c1ccc(Br)cc1)C1CCN(C2(C)CCN(C(=O)c3c(C)cc[n+]([O-])c3C)CC2)CC1 [ANCRIVIROC],IC50,[12],0.6 nM
same,Ki,[2],2 nM
CCCCN1C(=O)[C@@H]([C@H](O)C2CCCCC2)NC(=O)C12CCN(Cc1ccc(Oc3ccc(C(=O)O)cc3)cc1)CC2 [APLAVIROC],logP,physchem,3.8
same,bioavailability,[13],30%
same,IC50,[14],0.1 nM
CC(=O)Nc1ccc(O)cc1OC[C@@](C)(O)CNC1CCN(Cc2ccc(Cl)cc2)CC1 [AZD4818],logP,physchem,1.9
same,Ki,[3],5 nM
CCN(C(=O)Cc1ccc(S(C)(=O)=O)cc1)C1CCN(CC[C@@H](c2cc(F)cc(F)c2)C2CCC(S(C)(=O)=O)CC2)CC1 (some centres undefined) [AZD-5363],IC50,[2],0.17 nM
same,logP,physchem,3.1
CCCCOCCOc1ccc(-c2ccc3c(c2)/C=C(/C(=O)Nc2ccc([S@@+]([O-])Cc4cncn4CCC)cc2)CCCN3CC(C)C)cc1 [CENICRIVIROC],logP,[15],10.2
same,half-life,[16],35 h
same,EC50,[17],0.061 nM
O=C(Nc1ccc(Cl)c(S(=O)(=O)N2CCNCC2)c1O)Nc1cccc(F)c1Cl [ELUBRIXIN],IC50,[18],5.1 nM
same,logP,physchem,4.2
same,IC50,[19],> 10000 nM
same,IC50,[20],261 nM
COc1cccc2c1c(NS(=O)(=O)c1ccc(Cl)s1)nn2Cc1cccc(NC(=O)CO)c1 [GSK-2239633],bioavailability,[21],85%
same,half-life,[22],2.6 h
same,half-life,[23],2.5 h
same,bioavailability,[24],97%
same,Ki,[25],10 nM
Cc1cnc(C(=O)c2ncnc3[nH]ccc23)c(NS(=O)(=O)c2ccc(Cl)c(C(F)(F)F)c2)c1 [ILACIRNON],IC50,[26],5 nM
CCO[C@@H]1Cc2cc(C(F)(F)F)ccc2[C@H]1N1CCN(C2(C)CCN(C(=O)c3c(C)ncnc3C)CC2)C[C@@H]1C [INCB-9471],IC50,[2],3.1 nM
same,logP,physchem,3.9
Cc1nnc(C(C)C)n1[C@@H]1C[C@H]2CC[C@@H](C1)N2CC[C@H](NC(=O)C1CCC(F)(F)CC1)c1ccccc1 [MARAVIROC],logP,physchem,4.4
Cc1nnc(C(C)C)n1[C@H]1C[C@H]2CC[C@@H](C1)N2CC[C@H](NC(=O)C1CCC(F)(F)CC1)c1ccccc1 [MARAVIROC],IC90,[27],2 nM
CC[C@@H](Nc1c(Nc2cccc(C(=O)N(C)C)c2O)c(=O)c1=O)c1ccc(C)o1 [NAVARIXIN ANHYDROUS],logP,physchem,1
c1cc(CN2CCCNCCNCCCNCC2)ccc1CN1CCCNCCNCCCNCC1 [PLERIXAFOR],logP,[15],-0.4
CC(C)(C)c1ccc(S(=O)(=O)Nc2ccc(Cl)cc2C(=O)c2cc[n+]([O-])cc2)cc1 [VERCIRNON],logP,physchem,4.7
COC[C@@H](c1ccc(C(F)(F)F)cc1)N1CCN(C2(C)CCN(C(=O)c3c(C)ncnc3C)CC2)C[C@@H]1C [VICRIVIROC],logP,physchem,3.6
